In brackets after ≈: the same amount, converted by molar mass.
Tests used:
Type in all cases: functional
[1] = tested on: Mycobacterium tuberculosis; test: Antitubercular activity against Mycobacterium tuberculosis H37Rv at 6.25 ug/ml by microplate alamar blue assay
[2] = tested on: Mycobacterium tuberculosis; test: Antitubercular activity against Mycobacterium tuberculosis H37Rv by twofold dilution method
[3] = Selectivity index, ratio of IC50 for african green monkey Vero cells to MIC for Mycobacterium tuberculosis H37Rv

## CCOC(=O)C1=C(C)NC(=O)NC1c1cn(-c2ccccc2)nc1-c1ccc(C)cc1 (centres undefined)
[1]
  inhibition at 6.25 µg/mL: 68%

## COC(=O)C1=C(C)NC(=S)NC1c1cn(-c2ccccc2)nc1-c1ccc(Br)cc1 (centres undefined)
[1]
  inhibition at 6.25 µg/mL: 43%

## COC(=O)C1=C(C)NC(=S)NC1c1cn(-c2ccccc2)nc1-c1ccc([N+](=O)[O-])cc1 (centres undefined)
[1]
  inhibition at 6.25 µg/mL: 91%
[2]
  MIC: 3.13 µg/mL (≈ 6.96 µM)
[3]
  Selectivity Index: 3

## COC(=O)C1=C(C)NC(=S)NC1c1cn(-c2ccccc2)nc1-c1ccc(C)cc1 (centres undefined)
[1]
  inhibition at 6.25 µg/mL: 46%

## COC(=O)C1=C(C)NC(=O)NC1c1cn(-c2ccccc2)nc1-c1ccc(F)cc1 (centres undefined)
[1]
  inhibition at 6.25 µg/mL: 62%

## COC(=O)C1=C(C)NC(=O)NC1c1cn(-c2ccccc2)nc1-c1ccc(Cl)cc1 (centres undefined)
[1]
  inhibition at 6.25 µg/mL: 75%

## COC(=O)C1=C(C)NC(=O)NC1c1cn(-c2ccccc2)nc1-c1ccc(Br)cc1 (centres undefined)
[1]
  inhibition at 6.25 µg/mL: 90%
[2]
  MIC: 6.25 µg/mL (≈ 13.4 µM)
[3]
  Selectivity Index: >1.6

## COC(=O)C1=C(C)NC(=O)NC1c1cn(-c2ccccc2)nc1-c1ccc([N+](=O)[O-])cc1 (centres undefined)
[1]
  inhibition at 6.25 µg/mL: 39%

## CCOC(=O)C1=C(C)NC(SC)NC1c1cn(-c2ccccc2)nc1-c1ccc(F)cc1 (centres undefined)
[1]
  inhibition at 6.25 µg/mL: 8%

## CCOC(=O)C1=C(C)NC(SC)NC1c1cn(-c2ccccc2)nc1-c1ccc(Cl)cc1 (centres undefined)
[1]
  inhibition at 6.25 µg/mL: 13%

## CCOC(=O)C1=C(C)NC(SC)NC1c1cn(-c2ccccc2)nc1-c1ccc(Br)cc1 (centres undefined)
[1]
  inhibition at 6.25 µg/mL: 13%

## CCOC(=O)C1=C(C)NC(SC)NC1c1cn(-c2ccccc2)nc1-c1ccc([N+](=O)[O-])cc1 (centres undefined)
[1]
  inhibition at 6.25 µg/mL: 37%

## CCOC(=O)C1=C(C)NC(SC)NC1c1cn(-c2ccccc2)nc1-c1ccc(C)cc1 (centres undefined)
[1]
  inhibition at 6.25 µg/mL: 97%
[2]
  MIC: 1.56 µg/mL (≈ 3.48 µM)
[3]
  Selectivity Index: 4.7

## CCOC(=O)C1=C(C)NC(=O)NC1c1cn(-c2ccccc2)nc1-c1ccc([N+](=O)[O-])cc1 (centres undefined)
[1]
  inhibition at 6.25 µg/mL: 100%
[2]
  MIC: 0.02 µg/mL (≈ 0.0447 µM)
[3]
  Selectivity Index: >500

## CCOC(=O)C1=C(C)NC(=N)NC1c1cn(-c2ccccc2)nc1-c1ccc([N+](=O)[O-])cc1 (centres undefined)
[1]
  inhibition at 6.25 µg/mL: 58%

## CCOC(=O)C1=C(C)NC(=S)NC1c1cn(-c2ccccc2)nc1-c1ccc(Cl)cc1 (centres undefined)
[1]
  inhibition at 6.25 µg/mL: 75%

## CCOC(=O)C1=C(C)NC(=S)NC1c1cn(-c2ccccc2)nc1-c1ccc(Br)cc1 (centres undefined)
[1]
  inhibition at 6.25 µg/mL: 87%

## COC(=O)C1=C(C)NC(=O)NC1c1cn(-c2ccccc2)nc1-c1ccc(C)cc1 (centres undefined)
[1]
  inhibition at 6.25 µg/mL: 98%
[2]
  MIC: 1.56 µg/mL (≈ 3.88 µM)
[3]
  Selectivity Index: >6.4

## CCOC(=O)C1=C(C)NC(=O)NC1c1cn(-c2ccccc2)nc1-c1ccc(F)cc1 (centres undefined)
[1]
  inhibition at 6.25 µg/mL: 100%
[2]
  MIC: 0.02 µg/mL (≈ 0.0476 µM)
[3]
  Selectivity Index: >500

## CCOC(=O)C1=C(C)NC(=O)NC1c1cn(-c2ccccc2)nc1-c1ccc(Cl)cc1 (centres undefined)
[1]
  inhibition at 6.25 µg/mL: 49%

## CCOC(=O)C1=C(C)NC(=O)NC1c1cn(-c2ccccc2)nc1-c1ccc(Br)cc1 (centres undefined)
[1]
  inhibition at 6.25 µg/mL: 33%

## CCOC(=O)C1=C(C)NC(=S)NC1c1cn(-c2ccccc2)nc1-c1ccc(F)cc1 (centres undefined)
[1]
  inhibition at 6.25 µg/mL: 30%

## CCOC(=O)C1=C(C)NC(=S)NC1c1cn(-c2ccccc2)nc1-c1ccc([N+](=O)[O-])cc1 (centres undefined)
[1]
  inhibition at 6.25 µg/mL: 92%
[2]
  MIC: 3.13 µg/mL (≈ 6.75 µM)
[3]
  Selectivity Index: >3.2

## CCOC(=O)C1=C(C)NC(=S)NC1c1cn(-c2ccccc2)nc1-c1ccc(C)cc1 (centres undefined)
[1]
  inhibition at 6.25 µg/mL: 96%
[2]
  MIC: 1.56 µg/mL (≈ 3.61 µM)
[3]
  Selectivity Index: 5.7

## CCOC(=O)C1=C(C)NC(=N)NC1c1cn(-c2ccccc2)nc1-c1ccc(F)cc1 (centres undefined)
[1]
  inhibition at 6.25 µg/mL: 18%

## CCOC(=O)C1=C(C)NC(=N)NC1c1cn(-c2ccccc2)nc1-c1ccc(Cl)cc1 (centres undefined)
[1]
  inhibition at 6.25 µg/mL: 94%
[2]
  MIC: 3.13 µg/mL (≈ 7.18 µM)
[3]
  Selectivity Index: >3.2

## CCOC(=O)C1=C(C)NC(=N)NC1c1cn(-c2ccccc2)nc1-c1ccc(Br)cc1 (centres undefined)
[1]
  inhibition at 6.25 µg/mL: 51%

## CCOC(=O)C1=C(C)NC(=N)NC1c1cn(-c2ccccc2)nc1-c1ccc(C)cc1 (centres undefined)
[1]
  inhibition at 6.25 µg/mL: 78%

## COC(=O)C1=C(C)NC(=S)NC1c1cn(-c2ccccc2)nc1-c1ccc(F)cc1 (centres undefined)
[1]
  inhibition at 6.25 µg/mL: 73%

## COC(=O)C1=C(C)NC(=S)NC1c1cn(-c2ccccc2)nc1-c1ccc(Cl)cc1 (centres undefined)
[1]
  inhibition at 6.25 µg/mL: 68%

## NNC(=O)c1ccncc1 [ISONIAZID]
[2]
  MIC: 0.03 µg/mL (≈ 0.219 µM)

From ChEMBL document CHEMBL1255176, “Novel dihydropyrimidines as a potential new class of antitubercular agents” (2010)
